Consider four compounds from ChEMBL document CHEMBL6103605, “Discovery of First-in-Class BAZ2A/B and BAZ2B-Selective Degraders” (ACS Med Chem Lett, 2025).

pEC50, pKd: −log10 of the molar value.

Test [1] has as its target Bromodomain adjacent to zinc finger domain protein 2B (Homo sapiens, UniProt Q9UIF8).
Description: Binding affinity to BAZ2B bromodomain (unknown origin) assessed as dissociation constant by BROMOscan technology
Test [2] deals with von Hippel-Lindau disease tumor suppressor/Bromodomain adjacent to zinc finger domain protein 2A (Homo sapiens, UniProt Q9UIF9+P40337). Nature of the test: PROTAC activity at BAZ2A/VHL in human PC-3 cells assessed as degradation after 4 hrs by Western blot analysis.
In test [3] the target is Bromodomain adjacent to zinc finger domain protein 2A (Homo sapiens, UniProt Q9UIF9).
Description: Binding affinity to BAZ2A bromodomain (unknown origin) assessed as dissociation constant by BROMOscan technology
The target in test [4] is von Hippel-Lindau disease tumor suppressor/Bromodomain adjacent to zinc finger domain protein 2B (Homo sapiens, UniProt Q9UIF8+P40337). Nature of the test: PROTAC activity at BAZ2B/VHL in human PC-3 cells assessed as degradation after 4 hrs by Western blot analysis.
Test [5] is described as follows: Induction of BAZ2A level in human PC-3 cells measured after 4 hrs by Western blot analysis. The following applies: PC-3, 4 h. In general terms: Immunoblotting shows a protein as a band on a membrane.
Test [6] deals with von Hippel-Lindau disease tumor suppressor/Bromodomain adjacent to zinc finger domain protein 2A (Homo sapiens, UniProt P40337+Q9UIF9). Nature of the test: PROTAC activity at BAZ2A/VHL in human PC-3 cells assessed as BAZ2A degradation after 4 hrs by Western blot analysis.

A word on the pKd: it is the negative decadic logarithm of the Kd, by convention in mol/L. Read a high pKd as a low Kd. With `Cn1cc(CCn2c(CO)nc(-c3cnn(C)c3)c2-c2ccc(C#N)cc2)cn1`, in test [1], the pKd is 8.04.

Compound `COCc1nc(-c2cnn(C)c2)c(-c2ccc(C#N)cc2)n1CCc1cnn(C)c1` gave a pKd in test [1] of 8.00.

Usually DC50 stands for the concentration at which degradation of the target reaches its halfway point. Consider `Cc1ncsc1-c1ccc(CNC(=O)[C@@H]2C[C@@H](O)CN2C(=O)[C@@H](NC(=O)C2(F)CC2)C(C)(C)SC[C@H]2CC[C@H](COCc3nc(-c4cnn(C)c4)c(-c4ccc(C#N)cc4)n3CCc3cnn(C)c3)CC2)cc1`, for which the figures for the DC50 in test [2] and in test [4] were 180 nM and 250 nM, respectively. For the same compound, the pKd in test [1] is 7.80; in test [3], 8.32.

What is called pEC50 is −log10 of the EC50, conventionally taken in molar units. Turning to `Cc1ncsc1-c1ccc(CNC(=O)[C@@H]2C[C@@H](O)CN2C(=O)[C@@H](NC(=O)C2(F)CC2)C(C)(C)C)c(OC[C@H]2CC[C@H](COCc3nc(-c4cnn(C)c4)c(-c4ccc(C#N)cc4)n3CCc3cnn(C)c3)CC2)c1`, the pEC50 in test [5] and in test [6] was 7.46 in each case. Further, the results for the negative-log Kd (pKd) in test [1] and in test [3] were 7.29 and 8.33, respectively. For the same compound, the DC50 in test [4] worked out at 19 nM.
